pIC50: −log10 of the molar value.
Key:
[1] = system: NF-κB; experiment: inhibition of NF-κB activation in NF-κB-bla THP-1 cells after LPS stimulation; assay type: cell-based, human
Procedure, shortened: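 THP-1 monocytes stably carrying an NF-κB response element–driven β-lactamase reporter, plated about 24 h before activation with LPS at 0.2 ng/mL. Reporter activity measured by FRET ratiometric detection; values are averages of usually 2-4 runs per compound.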

[2] = system: lethal amount of bacterial lipopolysaccharide (LPS); experiment: lethal shock protocol; assay type: in vivo, mice
Description: Treatment of lethal inflammation/shock. Two compounds, 16α-bromoepiandrosterone (3β-hydroxy-16α-bromoandrostane-17-one) and 3β,16α-dihydroxy-17-oxoandrostane, were used in a lethal shock protocol. In one protocol, 3 mg of 16α-bromoepiandrosterone was administered to one group of animals by oral gavage, while another group received 3 mg of 16α-bromoepiandrosterone by subcutaneous injection. A group of control animals received a placebo control. In this protocol, the 16α-bromoepiandrosterone was administered to mice at 24 hours before and at 1 hour after administration of a lethal amount of bacterial lipopolysaccharide (LPS). By the end of the observation period, 72 hours after LPS administration, none of the vehicle treated placebo control animals had survived, while 65% of animals that received 16α-bromoepiandrosterone by oral administration survived. 50% of the animals that received 16α-bromoepiandrosterone by subcutaneous injection survived. Animals that survived for 72 hours all recovered from the LPS exposure.
In a second assay, 16α-bromoepiandrosterone or 3β,16α-dihydroxy-17-oxoandrostane was administered to mice by oral gavage at 24 hours before and 1 hour after administration of a lethal amount of LPS. A vehicle treated group of animals was used as the placebo control.

[3] = system: Pseudomonas aeruginosa; experiment: clearance of Pseudomonas aeruginosa infection from lung tissue; assay type: in vivo, CFTR mice; conditions: 40 mg/kg; day 10; vs vehicle
Description: Clearance of bacteria from lung tissue. The capacity of 16α-bromoepiandrosterone to clear a Pseudomonas aeruginosa infection from lung tissue was shown using a previously published protocol, A. van Heeckeren et al., J. Clin. Invest., 100(11):2810-2815 […]; A. van Heeckeren et al., Am. J. Respir. Crit. Care Med., 161:271-279 2000. The protocol was conducted in CFTR mice, which are used as an animal model for human cystic fibrosis, S. D. Freedman et al., Proc. Natl. Acad. Sci. USA, 96(24):13995-14000 1999; W. Zeng et al., Am. J. Physiol. Cell. Physiol. […] Establishment of chronic P. aeruginosa infection using agarose beads containing bacteria (50 μL containing about 6.1×10^4 CFU/animal) was published earlier, J. R. Starke et al., Pediatr. Res., 22:698-702 1987. Two groups of mice (n=9 for each group) were treated with 40 mg/kg of 16α-bromoepiandrosterone or vehicle (control) and the bacterial burden in the lungs of the animals was determined at 10 days after introduction of the agarose beads into the lung.

[4] = system: human whole blood; experiment: γ-interferon production in human whole blood exposed to LPS; assay type: cell-based; conditions: 24 hours with LPS; 16α-bromoepiandrosterone at 100 ng/mL
Description: Anti-inflammation activity in human cells in vitro. […] The amount of γ-interferon was measured in the growth medium when the cells had been incubated in the presence of LPS for 24 hours.

[5] = system: CD4^+CD25^+ T regulatory cells; experiment: generation of CD4+CD25+ T regulatory cells after adoptive transfer; assay type: in vivo, B6 mice; conditions: 1 mg/animal/day s.c. 14 days
Description: Inhibition of the generation of CD4^+CD25^+ T regulatory cells or their activity in vivo. Purified CD4^+CD25^− T cells (5×10^6 cells) from congenic B6.SJL mice (CD45.1) per group were adoptively transferred into each of five B6 mice (CD45.2). The purified CD4^+CD25^− T cells were obtained by fluorescence activated cell sorting (FACS) of the donor cells at least twice. Vehicle (0.1% carboxymethylcellulose, 0.9% saline, 2% tween 80, 0.05% phenol) or 16α-bromoepiandrosterone in vehicle (1 mg/animal/day in 100 μL vehicle) was injected subcutaneously before transfer of the cells from the CD45.1 donor animals and the injections were continued daily for 14 days. Thymus, lymph nodes and spleens were collected from the animals at day 15. Samples of thymus, lymph node and spleen were obtained from individuals, and the cells were labeled with fluorescent antibody that bound to CD4, CD25, CD103 or Foxp3. The cells were then analyzed by flow cytometry to enumerate the numbers of the various cell types. The remainder of cells from lymph nodes and spleen of each treatment group were pooled, pre-enriched for CD4^+CD25^+ cells and then analyzed for CD4^+CD25^+ that arose from the host (endogenous CD45.2 cells) and from donor cells (CD45.1 cells that converted from the CD4^+CD25^− donor phenotype to the CD4^+CD25^+ phenotype after residing in vivo for 15 days). The cells were analyzed by cell sorter. To test for regulatory function, varying numbers of purified converted CD45.1 or endogenous CD45.2 CD4^+CD25^+ cells were co-cultured with 2000 CD4^+CD25^− responder cells, 1×10^5 irradiated spleen cells as antigen presenting cells, and […] of anti-CD3 antibody. Fresh CD4^+CD25^+ cells were used as controls. Proliferation was determined by measurement of ^3H-thymidine uptake 4 days after initiation of culture.

SMILES: C[C@]12CC[C@H](O)C[C@@H]1CC[C@@H]1[C@@H]2CC[C@]2(C)C(=O)[C@H](Br)C[C@@H]12 [16α-bromoepiandrosterone]
- maximum inhibition of NF-κB [1]: 100%
- pIC50 ([1]; LPS stimulation, 50% of the compound's maximum inhibition, averages, read-out: IC50): 5.06
- survival 72 hours after LPS ([2]; 3 mg oral gavage 24 h before and 1 h after LPS): 65%
- survival 72 hours after LPS ([2]; 3 mg subcutaneous injection 24 h before and 1 h after LPS): 50%
- survival 72 hours after LPS ([2]; second assay, oral gavage 24 h before and 1 h after LPS): 80%
- bacterial burden in the lungs [3]: reduced
- production of γ-interferon [4]: Reduced production
- donor CD45.1 CD4^+CD25^+CD103^+ cells of total donor CD4^+CD25^+ cells in spleen [5]: 9.63%
- proportion of endogenous CD45.2 CD4^+CD25^+CD103^+ Treg cells in spleen [5]: 13.40%
- donor CD45.1 CD4^+CD25^+ cell number in spleen ([5]; day 15): 0.62×10^5 cells
- endogenous CD45.2 CD4^+CD25^+ cell number in spleen ([5]; day 15): 5.49×10^6 cells
- endogenous CD45.2 CD4^+CD25^+ cells in the thymus ([5]; day 15): 1.59×10^5
